Reference: patent publication US10544143B2, “4-azaindole compounds” (BRISTOL-MYERS SQUIBB COMPANY, priority 2017, dated 2020)

Legend:
human TLR8 = human TLR8 (Homo sapiens (Human), UniProt Q9NR97); assay: TLR8 inhibition reporter assay (HEK-Blue SEAP); conditions: read-out: TLR8 IC50; HEK-Blue cells overexpressing human TLR8, SEAP reporter, R848 15.9 μM;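 also: SEAP driven by IFN-β minimal promoter carrying NF-κB and AP-1 sites, compounds dosed 0.05 nM to 50 µM for 22 h, inhibition scaled between agonist-plus-DMSO and reference-inhibitor wells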
Chain of human TLR8 (Q9NR97 27-1041): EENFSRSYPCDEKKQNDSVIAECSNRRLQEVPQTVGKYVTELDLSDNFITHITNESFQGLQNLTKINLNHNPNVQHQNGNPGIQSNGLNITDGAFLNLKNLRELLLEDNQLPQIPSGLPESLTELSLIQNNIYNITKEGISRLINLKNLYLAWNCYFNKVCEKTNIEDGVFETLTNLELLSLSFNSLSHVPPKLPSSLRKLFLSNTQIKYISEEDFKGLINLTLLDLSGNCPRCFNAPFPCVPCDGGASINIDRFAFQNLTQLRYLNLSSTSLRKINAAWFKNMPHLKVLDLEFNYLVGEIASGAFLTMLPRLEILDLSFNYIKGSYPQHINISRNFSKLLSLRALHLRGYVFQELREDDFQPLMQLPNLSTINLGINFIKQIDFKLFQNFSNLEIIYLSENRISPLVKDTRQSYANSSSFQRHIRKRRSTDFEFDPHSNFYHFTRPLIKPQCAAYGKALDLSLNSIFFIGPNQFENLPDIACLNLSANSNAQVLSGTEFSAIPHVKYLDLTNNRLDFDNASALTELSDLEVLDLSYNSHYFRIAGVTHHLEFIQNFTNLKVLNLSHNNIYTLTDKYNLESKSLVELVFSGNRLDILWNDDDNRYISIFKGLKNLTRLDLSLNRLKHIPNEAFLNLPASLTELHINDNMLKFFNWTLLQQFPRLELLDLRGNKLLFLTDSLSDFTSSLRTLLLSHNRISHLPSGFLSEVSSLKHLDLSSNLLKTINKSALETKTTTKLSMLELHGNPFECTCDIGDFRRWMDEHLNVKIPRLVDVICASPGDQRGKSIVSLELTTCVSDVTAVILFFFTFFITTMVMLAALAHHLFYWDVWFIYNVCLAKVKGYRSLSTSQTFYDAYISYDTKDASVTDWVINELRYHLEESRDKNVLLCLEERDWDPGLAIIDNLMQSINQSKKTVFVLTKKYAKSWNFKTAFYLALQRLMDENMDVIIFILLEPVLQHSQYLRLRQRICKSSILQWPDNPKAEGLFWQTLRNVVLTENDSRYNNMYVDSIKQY

human TLR7 = human TLR7 (Homo sapiens (Human), UniProt Q9NYK1); assay: TLR7 inhibition reporter assay (HEK-Blue SEAP); assay type: cell-based; conditions: HEK-Blue cells overexpressing human TLR7, SEAP reporter, gardiquimod 7.5 μM
Chain of human TLR7 (Q9NYK1 27-1049): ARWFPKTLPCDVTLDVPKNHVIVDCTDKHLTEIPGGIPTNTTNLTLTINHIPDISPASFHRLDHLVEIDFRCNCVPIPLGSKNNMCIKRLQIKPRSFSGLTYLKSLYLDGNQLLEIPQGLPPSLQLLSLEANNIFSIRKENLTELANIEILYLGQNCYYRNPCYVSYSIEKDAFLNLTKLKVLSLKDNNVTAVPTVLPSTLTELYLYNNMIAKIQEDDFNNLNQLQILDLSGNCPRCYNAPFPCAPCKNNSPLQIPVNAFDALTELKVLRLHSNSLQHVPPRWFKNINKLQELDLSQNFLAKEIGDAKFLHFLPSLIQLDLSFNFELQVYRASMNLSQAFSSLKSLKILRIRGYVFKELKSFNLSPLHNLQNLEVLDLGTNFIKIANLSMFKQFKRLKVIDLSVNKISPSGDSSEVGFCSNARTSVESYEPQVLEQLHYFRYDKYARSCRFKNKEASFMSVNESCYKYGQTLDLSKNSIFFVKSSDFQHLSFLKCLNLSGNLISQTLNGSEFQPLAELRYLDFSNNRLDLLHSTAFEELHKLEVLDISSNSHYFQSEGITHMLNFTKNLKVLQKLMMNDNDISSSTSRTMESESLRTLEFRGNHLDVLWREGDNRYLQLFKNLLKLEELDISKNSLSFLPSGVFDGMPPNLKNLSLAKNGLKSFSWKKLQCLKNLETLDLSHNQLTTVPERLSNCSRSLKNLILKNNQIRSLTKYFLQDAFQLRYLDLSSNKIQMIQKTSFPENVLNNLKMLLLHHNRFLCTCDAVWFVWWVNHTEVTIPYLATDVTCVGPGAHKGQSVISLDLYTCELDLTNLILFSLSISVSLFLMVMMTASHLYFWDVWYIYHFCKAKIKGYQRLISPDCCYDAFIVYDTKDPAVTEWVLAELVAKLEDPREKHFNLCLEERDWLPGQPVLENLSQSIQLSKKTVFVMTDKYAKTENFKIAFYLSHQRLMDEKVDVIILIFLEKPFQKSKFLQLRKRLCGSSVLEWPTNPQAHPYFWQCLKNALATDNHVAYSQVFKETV
Method: HEK-Blue™-cells (Invivogen) overexpressing human TLR7, TLR8 or TLR9 receptors were used for screening inhibitors of these receptors using an inducible SEAP (secreted embryonic alkaline phosphatase) reporter gene under the control of the IFN-β minimal promoter fused to five NF-κB and AP-1-binding sites. Briefly, cells are seeded into Greiner 384 well plates (15000 cells per well for TLR7, 20,000 for TLR8 and 25,000 for TLR9) and then treated with test compounds in DMSO to yield a final dose response concentration range of 0.05 nM-50 μM. After a 30 minute compound pre-treatment at room temperature, the cells are then stimulated with a TLR7 ligand (gardiquimod at a final concentration of 7.5 μM), TLR8 ligand (R848 at a final concentration of 15.9 μM) or TLR9 ligand (ODN2006 at a final concentration of 5 nM) to activate NF-κB and AP-1 which induce the production of SEAP. After a 22 hour incubation at 37° C., 5% CO2, SEAP levels are determined with the addition of HEK-Blue™ Detection reagent (Invivogen), a cell culture medium that allows for detection of SEAP, according to manufacturer's specifications.

human TLR9 = human TLR9 (Homo sapiens (Human), UniProt Q9NR96); assay: TLR9 inhibition reporter assay (HEK-Blue SEAP); conditions: read-out: TLR9 IC50; HEK-Blue cells overexpressing human TLR9, SEAP reporter, ODN2006 5 nM;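 also: SEAP driven by an IFN-β minimal promoter with NF-κB and AP-1 sites, read after 22 h, compounds dosed 0.05 nM–50 µM, inhibition scaled between agonist plus DMSO and reference-inhibitor wells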
Chain of human TLR9 (Q9NR96 26-1032): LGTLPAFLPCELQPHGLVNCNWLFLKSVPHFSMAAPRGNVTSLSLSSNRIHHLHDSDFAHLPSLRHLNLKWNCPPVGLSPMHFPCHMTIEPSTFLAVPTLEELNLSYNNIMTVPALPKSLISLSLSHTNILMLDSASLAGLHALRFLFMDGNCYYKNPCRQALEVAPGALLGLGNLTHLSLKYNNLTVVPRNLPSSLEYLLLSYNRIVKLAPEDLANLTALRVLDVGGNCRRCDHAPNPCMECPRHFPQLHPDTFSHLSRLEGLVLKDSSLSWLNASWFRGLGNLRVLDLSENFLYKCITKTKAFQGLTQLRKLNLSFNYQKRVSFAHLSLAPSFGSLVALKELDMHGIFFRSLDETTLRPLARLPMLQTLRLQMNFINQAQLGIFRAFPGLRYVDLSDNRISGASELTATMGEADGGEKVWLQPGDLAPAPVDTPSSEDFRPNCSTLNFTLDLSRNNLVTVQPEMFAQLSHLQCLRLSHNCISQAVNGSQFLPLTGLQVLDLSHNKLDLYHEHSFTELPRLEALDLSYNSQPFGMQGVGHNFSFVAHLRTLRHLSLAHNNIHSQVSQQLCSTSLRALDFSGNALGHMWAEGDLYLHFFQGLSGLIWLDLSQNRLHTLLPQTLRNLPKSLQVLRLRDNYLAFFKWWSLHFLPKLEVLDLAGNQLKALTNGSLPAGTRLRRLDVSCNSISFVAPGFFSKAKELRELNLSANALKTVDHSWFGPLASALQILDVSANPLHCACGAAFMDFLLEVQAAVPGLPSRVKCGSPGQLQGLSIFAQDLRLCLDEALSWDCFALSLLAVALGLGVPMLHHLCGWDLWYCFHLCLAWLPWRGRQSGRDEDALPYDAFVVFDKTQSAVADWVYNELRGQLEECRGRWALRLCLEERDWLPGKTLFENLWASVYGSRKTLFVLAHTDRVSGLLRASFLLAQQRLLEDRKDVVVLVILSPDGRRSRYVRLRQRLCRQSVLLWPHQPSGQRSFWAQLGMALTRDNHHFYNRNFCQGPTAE

SMILES | IC50 (human TLR8) [nM] | IC50 (human TLR7) [nM] | IC50 (human TLR9) [nM]
Cc1c(-c2[nH]c3ccc(C4CCC(NC5CC5)CC4)nc3c2C(C)C)cn2ncnc2c1C (stereo not drawn) [Example 426] | 2.6 | 2.5 | 1400
Cc1c(-c2[nH]c3ccc(C4CCC(N(C)CCS(C)(=O)=O)CC4)nc3c2C(C)C)cn2ncnc2c1C (stereo not drawn) [Example 427] | 7.6 | 2.4 | 4900
Cc1c(-c2[nH]c3ccc(C4CCC(N(CCC#N)C5CC5)CC4)nc3c2C(C)C)cn2ncnc2c1C (stereo not drawn) [Example 428] | 6.4 | 7.4 | 9860
COCCNC1CCC(c2ccc3[nH]c(-c4cn5ncnc5c(C)c4C)c(C(C)C)c3n2)CC1 (stereo not drawn) [Example 429] | 5.2 | 3.4 | 7000
COCCNC1CCC(c2ccc3[nH]c(-c4cn5ncnc5c(C)c4C)c(C(C)C)c3n2)CC1 (stereo not drawn) [Example 431] | 11 | 16 | 4660
Cc1c(-c2[nH]c3ccc(C4CCC(NCCC#N)CC4)nc3c2C(C)C)cn2ncnc2c1C (stereo not drawn) [Example 432] | 0.55 | 0.37 | 584
Cc1c(-c2[nH]c3ccc(C4CCC(N(CCC#N)C5CC5)CC4)nc3c2C(C)C)cn2ncnc2c1C (stereo not drawn) [Example 433] | 60 | 42 | > 50000
Cc1c(-c2[nH]c3ccc(C4CCC(N5CC(C#N)C5)CC4)nc3c2C(C)C)cn2ncnc2c1C (stereo not drawn) [Example 434] | 2.4 | 1.5 | 7430
CC(=O)N(C)C1CCC(c2ccc3[nH]c(-c4cn5ncnc5c(C)c4C)c(C(C)C)c3n2)CC1 (stereo not drawn) [Example 439] | 32 | 3.5 | 24200
CC(=O)N(C)C1CCC(c2ccc3[nH]c(-c4cn5ncnc5c(C)c4C)c(C(C)C)c3n2)CC1 (stereo not drawn) [Example 440] | 14 | 6.4 | > 50000
Cc1c(-c2[nH]c3ccc(C4CCC(N(CC#N)C5COC5)CC4)nc3c2C(C)C)cn2ncnc2c1C (stereo not drawn) [Example 441] | 0.63 | 0.79 | 1660
Cc1c(-c2[nH]c3ccc(C4CCC(N5CCN(C)C(=O)C5)CC4)nc3c2C(C)C)cn2ncnc2c1C (stereo not drawn) [Example 442] | 3.5 | 3.7 | 18300
Cc1c(-c2[nH]c3ccc(C4CCC(N(CCO)C5COC5)CC4)nc3c2C(C)C)cn2ncnc2c1C (stereo not drawn) [Example 444] | 5.2 | 16 | 39200
Cc1c(-c2[nH]c3ccc(C4CCC(N5CC(S(C)(=O)=O)C5)CC4)nc3c2C(C)C)cn2ncnc2c1C (stereo not drawn) [Example 445] | 3.6 | 1.5 | 4890

Now from value to compound:

IC50 (human TLR8) [nM] | IC50 (human TLR7) [nM] | IC50 (human TLR9) [nM] | SMILES
0.91 | 0.91 | 364 | Cc1c(-c2[nH]c3ccc(C4CCC(NCCS(N)(=O)=O)CC4)nc3c2C(C)C)cn2ncnc2c1C (stereo not drawn) [Example 446]
2.3 | 1.7 | 1640 | Cc1c(-c2[nH]c3ccc(C4CCC(NCCS(N)(=O)=O)CC4)nc3c2C(C)C)cn2ncnc2c1C (stereo not drawn) [Example 447]
24 | 7.5 | 7690 | Cc1c(-c2[nH]c3ccc(C4CCC(N5CC(S(C)(=O)=O)C5)CC4)nc3c2C(C)C)cn2ncnc2c1C (stereo not drawn) [Example 448]
165 | 323 | 18000 | CNC(=O)CN(C1CCC(c2ccc3[nH]c(-c4cn5ncnc5c(C)c4C)c(C(C)C)c3n2)CC1)C1COC1 (stereo not drawn) [Example 449]
0.71 | 0.61 | 1190 | Cc1c(-c2[nH]c3ccc(C4CCC(NCCS(C)(=O)=O)CC4)nc3c2C(C)C)cn2ncnc2c1C (stereo not drawn) [Example 450]
0.63 | 0.48 | 1040 | Cc1c(-c2[nH]c3ccc(C4CCC(NC5CCOCC5)CC4)nc3c2C(C)C)cn2ncnc2c1C (stereo not drawn) [Example 451]
4.4 | 2.7 | 3090 | Cc1c(-c2[nH]c3ccc(C4CCC(NCCS(C)(=O)=O)CC4)nc3c2C(C)C)cn2ncnc2c1C (stereo not drawn) [Example 452]
